Molecules are shown by their SMILES. Where two headings read alike, the source gives them in different places.

In data set [1] the test system is SARS-CoV-2 Omicron hCoV-19/USA/MD HP20874/2021 (B.1.1.529) strain. The data set can be described thus: In vitro antiviral activity against SARS-CoV-2 Omicron B.1.1.529 in Calu-3 cells (NP ELISA, percent virus reduction). The conditions noted are these: Severe acute respiratory syndrome coronavirus 2, Calu-3, 48 h. The format is cell-based. (ELISA stands for enzyme-linked immunosorbent assay.)

For data set [2], the system named is hCoV-19/USA/Chicago IL/2022 (BA.5.2). The data set can be described thus: In vitro antiviral activity against SARS-CoV-2 BA.5.2 in Calu-3 cells (NP ELISA, percent virus reduction). The conditions noted are these: Severe acute respiratory syndrome coronavirus 2, Calu-3, 48 h. The format is cell-based.
The nature of data set [3]: in vivo. Particulars: crab-eating monkey, plasma. The protocol:
Crab-Eating Monkey Pharmacokinetic Properties Testing
Oral administration: the compound was administered with a volume ratio of Solutol:PEG400:Tween80:Saline=10:40:2:48 at a dose of 2 mg/kg. The blood was taken continuously at 0.25 h, 0.5 h, 1 h, 2 h, 4 h, 8 h, 10 h, 12 h and 24 h after drug administration in EP tubes containing EDTA, centrifuged at 8000 rpm/min for 5 min, and then the upper layer of plasma was frozen at −80° C. and stored for LC-MS/MS analysis.
Intravenous administration: the compound was administered with 10% DMSO/30% PEG400/60% water at a dose of 1 mg/kg). The blood was taken continuously at 0.0833 h, 0.25 h, 0.5 h, 1 h, 2 h, 4 h, 8 h, 12 h and 24 h after drug administration in EP tubes containing EDTA, centrifuged at 8000 rpm/min for 5 min and then the upper layer of plasma was frozen at −80° C. and stored for LC-MS/MS analysis.
The pharmacokinetic parameters were calculated from the blood concentration-time data obtained from the tests using WinNonlin software.

A short description of data set [4]: in vivo. The procedure: At Model Pharmacokinetic Properties Testing
Oral administration: the compound was administered with a volume ratio of Solutol:PEG400:Tween80:Saline=10:40:2:48 at a dose of 10 mg/kg. blood was taken continuously from the fundus venous plexus at 0.25 h, 0.5 h, 1 h, 2 h, 4 h, 8 h, 10 h, 12 h, and 24 h after administration in EP tubes containing EDTA, centrifuged at 8000 rpm/min for 5 min and then the upper layer of plasma was frozen at −80° C. and stored for LC-MS/MS analysis.
Intravenous administration: the compound was administered with a volume ratio of 10% DMSO/30% PEG400/60% water at a dose of 1 mg/kg). At 0.0833 h, 0.25 h, 0.5 h, 1 h, 2 h, 4 h, 8 h, 12 h and 24 h after drug administration, blood was serially collected from the fundus venous plexus in EP tubes containing EDTA, centrifuged at 8000 rpm/min for 5 min and then the upper layer of plasma was frozen at −80° C. and stored for LC-MS/MS analysis.
The pharmacokinetic parameters were calculated using WinNonlin software base on the blood concentration-time data obtained from the tests.

Setting [5] is: intravenous, 1 mg/kg, read-out: Intravenous injection AUClast.
The mark [6] stands for this setting: oral, 2 mg/kg, read-out: Oral AUClast.

Usually EC50 stands for the concentration at which the effect is half-maximal. For the molecule `O=c1nc(Nc2cc3cn(CCO)nc3cc2Cl)n(Cc2cc(F)c(F)cc2F)c(=O)n1Cc1ccon1` [Compound 70], the EC50 is 18 nM in data set [1] and 21 nM in data set [2]. Further, the AUC(0-t) in data set [3] (setting [5]) came out at 4870 ng·h/mL; in data set [3] (setting [6]), 9880 ng·h/mL.

As to `[2H]C([2H])([2H])n1cc2cc(Nc3nc(=O)n(Cc4ccon4)c(=O)n3Cc3cc(F)c(F)cc3F)c(Cl)cc2n1` [Compound 17], the EC50 in data set [1] came out at 30 nM; in data set [2], 16 nM. Besides, the AUC(0-t) in data set [4] (iv, 1 mg/kg) was found to be 25400 ng·h/mL; in data set [4] (po, 10 mg/kg) it was 189000 ng·h/mL; in data set [3] (setting [5]), 41000 ng·h/mL; in data set [3] (setting [6]), 64300 ng·h/mL.

Regarding `[2H]C([2H])([2H])n1cc2cc(Nc3nc(=O)n(Cc4cscn4)c(=O)n3Cc3cc(F)c(F)cc3F)c(Cl)cc2n1` [Compound 16], the results for the EC50 in data set [1] and in data set [2] were 16 nM and 22 nM, respectively. Also, the AUC(0-t) was 7040 ng·h/mL in data set [4] (iv, 1 mg/kg); 139000 ng·h/mL in data set [4] (po, 10 mg/kg); 3680 ng·h/mL in data set [3] (setting [5]); 10100 ng·h/mL in data set [3] (setting [6]).

As for `[2H]C([2H])([2H])n1cc2cc(Nc3nc(=O)n(Cc4ccon4)c(=O)n3Cc3cc(F)c(F)c(F)c3)c(Cl)cc2n1` [Compound 41], the EC50 turned out to be 31 nM in data set [1] and 33 nM in data set [2]. In addition, the AUC(0-t) turned out to be 26500 ng·h/mL in data set [4] (iv, 1 mg/kg); 234000 ng·h/mL in data set [4] (po, 10 mg/kg); 40600 ng·h/mL in data set [3] (setting [5]); 63300 ng·h/mL in data set [3] (setting [6]).

As for `Cn1cc2cc(Nc3nc(=O)n(Cc4nccs4)c(=O)n3Cc3cc(F)c(F)cc3F)c(Cl)cc2n1` [Compound 71], the EC50 in data set [1] was determined as 34 nM; in data set [2] it was 45 nM.

`Cn1cc2cc(Nc3nc(=O)n(Cc4cocn4)c(=O)n3Cc3cc(F)c(F)cc3F)c(Cl)cc2n1` [Compound 26]: the AUC(0-t) in data set [4] (iv, 1 mg/kg) stood at 7790 ng·h/mL; in data set [4] (po, 10 mg/kg), 14100 ng·h/mL.

`O=c1nc(Nc2cc3cn(CCO)nc3cc2Cl)n(Cc2cc(F)c(F)cc2F)c(=O)n1Cc1cscn1` [Compound 97]: the AUC(0-t) came to 5670 ng·h/mL in data set [4] (iv, 1 mg/kg) and 7660 ng·h/mL in data set [4] (po, 10 mg/kg).

Take `[2H]C([2H])([2H])n1cc2cc(Nc3nc(=O)n(Cc4cocn4)c(=O)n3Cc3cc(F)c(F)cc3F)c(Cl)cc2n1` [Compound 18]: the results for the AUC(0-t) in data set [3] (setting [5]) and in data set [3] (setting [6]) were 4890 ng·h/mL and 10400 ng·h/mL, respectively.

Consider `[2H]C([2H])([2H])n1cc2cc(Nc3nc(=O)n(Cc4cscn4)c(=O)n3Cc3cc(F)c(F)c(F)c3)c(Cl)cc2n1` [Compound 40], for which the values for the EC50 in data set [1] and in data set [2] were 23 nM and 40 nM, respectively. The AUC(0-t) was 9880 ng·h/mL in data set [4] (iv, 1 mg/kg); 134000 ng·h/mL in data set [4] (po, 10 mg/kg); 36500 ng·h/mL in data set [3] (setting [5]); 62400 ng·h/mL in data set [3] (setting [6]).

Turning to `[2H]c1c2cc(Nc3nc(=O)n(Cc4ccon4)c(=O)n3Cc3cc(F)c(F)cc3F)c(Cl)cc2nn1C` [Compound 107], the AUC(0-t) is 21400 ng·h/mL in data set [4] (iv, 1 mg/kg) and 209000 ng·h/mL in data set [4] (po, 10 mg/kg).

Take `Cn1cc2cc(Nc3nc(=O)n(Cc4ncsn4)c(=O)n3Cc3cc(F)c(F)cc3F)c(Cl)cc2n1` [Compound 78]: the EC50 was 67 nM in data set [1] and 59 nM in data set [2].
